This is an account of results in PMC3552814, “Elimination Rates of Dioxin Congeners in Former Chlorophenol Workers from Midland, Michigan” (Environmental Health Perspectives, 2012).

Details of data set [1]: method as in van den Berg et al. 2006. As to conditions: WHO toxic equivalency factor; ref van den Berg et al. 2006; cited from earlier work.
Data set [2] in a line: Serum lipid-adjusted dioxin congener concentrations in former chlorophenol workers, repeated blood sampling 2004–2005 and 2010. In kind it is in vivo, human. The settings on record: for Mean percent change: change in concentration from 2004–2005 to 2010; for Concentration 2004–2005, Mean ± SD / Concentration 2010, Mean ± SD: serum, 56 Midland study participants. From the text: Participant selection. The selection strategy called for drawing a stratified random sample of workers included in the previous 2004–2005 blood draw. […] We used the 95th percentile of age-specific U.S. population concentrations for each congener identified in the National Health and Nutrition Examination Survey (NHANES; [Centers for Disease Control and Prevention 2009]) to define the upper ends of the background ranges. Nine strata were formed based jointly on previous serum levels of TCDD (high, > 50 ppt; moderate, 10–50 ppt; and background, < 10 ppt), representing workers in predominantly TCP processes, and OCDD (high, > 5,000 ppt; moderate, 1,000–5,000 ppt; and background, < 1,000 ppt), representing those with experience in PCP processes. We attempted to enroll participants representing each of these strata. Invitations to participate were sent to our target sample of 72 workers who were selected based on these congener concentration criteria.
Questionnaire and data collection methods. We conducted the serum analyses in 2010 using the same protocol, procedures, and laboratory as in the 2004–2005 blood draw ([Collins et al. 2006]). The serum samples were tested for 7 polychlorinated dibenzo-p-dioxins (PCDDs), 10 polychlorinated dibenzofurans (PCDFs), and 15 polychlorinated biphenyls (PCBs). […] The study was conducted pursuant to approval and oversight by the Dow Human Subjects Review Board in Midland, Michigan. All study participants gave informed consent.
On the day of examination in the fall of 2010, participants donated blood and completed the same questionnaire originally administered during the 2004–2005 sampling effort ([Collins et al. 2006]). The questionnaire addressed dietary and smoking habits, work history, and recent changes in weight. Height, weight, and blood pressure were also measured. Diagnosis of chloracne during occupational exposure was extracted from workplace medical records; the criteria for chloracne diagnosis were defined previously by [Bond et al. (1990)].

Data set [3] can be described thus: Elimination half-lives from serial serum samples, first-order one-compartment model. The data set is classed as in vivo. As to conditions: human, serum (lipid-adjusted), other: occupational exposure, 56 participants. From the text: Elimination rates. Changes in measured concentrations of persistent compounds such as PCDDs and PCDFs reflect not only intrinsic elimination rates but also any ongoing intakes of the compounds and changes in the volume of distribution, in this case, the volume of body lipids ([Bartell 2012]; [Ritter et al. 2009], [2011]). If current body concentrations are high relative to steady-state concentrations associated with current background intake rates, apparent elimination rates will approximate intrinsic elimination rates ([Bartell 2012]; [van der Molen et al. 1998]). If, on the other hand, background intakes are high compared with current body concentrations, the estimated apparent elimination rate will be lower than the intrinsic rates. Robust data regarding ongoing congener intake rates were not available, so the elimination rates were first calculated based on net rate of change of the congeners, which reflects both intrinsic elimination rates and unmeasured intake rates, termed “apparent” elimination rates.
We calculated apparent elimination rates in two ways: based on changes in concentration, or based on changes in estimated body amounts. For the former approach, concentrations of congener i in 2005 and 2010 (Ci,2005 and Ci,2010, respectively) and time between sampling dates (Δt), were used to estimate the elimination rate (ki):
Concentrations of lipophilic compounds may change in response to changes in the volume of distribution (increase or decrease in amount of body fat), even in the absence of any elimination or additional exposure ([Charlier et al. 2002]; [Chevrier et al. 2000]; [Hue et al. 2006]; [Imbeault et al. 2001]; [Pelletier et al. 2002]; [Walford et al. 1999]). Thus, we also estimated the rate of change in estimated whole body mass of each congener. For the approach based on changes in estimated mass of dioxins in the body, the congener concentrations in 2005 and 2010 were replaced by the estimated amounts, A, of congener i in the body:
where PBF is percent body fat estimated using an age-, sex-, and body mass index (BMI)-specific formula, which has been validated in adults over a range of ages including those of the participants in this study ([Deurenberg et al. 1991]), BW is body weight in kilograms, and Ci is the serum lipid–adjusted concentration of congener i. This approach assumes that the compound is distributed solely in body lipid. The resulting amount, Ai, calculated for each sampling time and congener was used in Equation 1 in place of concentration for calculating the apparent whole-body mass-based elimination rate.
Elimination half-lives (t1/2) corresponding to the estimated elimination rates, (k) were calculated for some comparisons with previous literature:
Inclusion of plausible background exposures. […] Changes in concentration or estimated mass of compound in the body reflect the net effect of both elimination and any ongoing exposures between sampling time points. Under a first-order model, the amount of compound in the body in 2010 (A2010) is a function of both the intrinsic elimination rate, kint, and the ongoing exposure rate between sampling time points:
where D is the yearly dose rate in nanograms per year, and A2005 is the starting amount in 2005. As described by [Ritter et al. (2011)], intrinsic elimination rates can be estimated if ongoing exposure levels are known or can be estimated.

For data set [4] the following is noted: cited from earlier work; for Half-life of elimination, Rohde et al. 1999 (mean) / Half-life of elimination, Flesch-Janys et al. 1996 (median): from change in concentration; for Half-life of elimination, Rohde et al. 1999 (mean): n = 6, ages 41–73 years, ref Rohde et al. 1999; for Half-life of elimination, Flesch-Janys et al. 1996 (median): n = 26 to 48, mean age 48.7 years at first sampling, ref Flesch-Janys et al. 1996.

Details of data set [5]: method as in Patterson et al. 2009. As to conditions: persons ≥ 60 years of age, ref Patterson et al. 2009, cited from earlier work; for NHANES (2003–2004) P50: 50th percentile, LODs variable; for NHANES (2003–2004) P95: 95th percentile.
Setting [6] is: based on change in estimated mass of the congener in the body, read-out: Elimination half-lives [median (P25–P75)], Apparent, mass based (converted).
Setting [7] is: based on change in serum lipid concentration, read-out: Elimination half-lives [median (P25–P75)], Apparent, concentration based (converted).
Setting [8] is: change in body mass after accounting for plausible background intake (Table 3), read-out: Elimination half-lives [median (P25–P75)], Estimated intrinsic (converted).

SMILES strings stand for the structures. Where two headings read alike, the source gives them in different places.

As for `Clc1cccc2c1Oc1c(Cl)c(Cl)c(Cl)c(Cl)c1O2` [PeCDD, pentachlorodibenzo-p-dioxin], the TEF in data set [1] is reported as 1. For the same molecule, in data set [2], the Mean percent change result is given as “–28%”; the “Concentration 2004–2005, Mean ± SD” value turned out to be 19.7 ± 11.3 pg/g lipid; the “Concentration 2010, Mean ± SD” value is reported as 14.2 ± 8.6 pg/g lipid. The half-life in data set [3] (setting [6]) is 4240 days. Moreover, the half-life in data set [3] (setting [7]) was 3910 days. The half-life in data set [3] (setting [8]) was 3910 days. Further, in data set [4], the “Half-life of elimination, Rohde et al. 1999 (mean)” value (“Half-life of elimination … (mean)” below) is recorded as 13.9 years and the “Half-life of elimination, Flesch-Janys et al. 1996 (median)” value (shortened to “Half-life of elimination … (median)”) was 15.7 years. Moreover, in data set [5], the “NHANES (2003–2004) P50” value is 8.0 pg/g lipid and the “NHANES (2003–2004) P95” value is 17.7 pg/g lipid.

In the case of `Clc1cc2c(c(Cl)c1Cl)Oc1c(Cl)c(Cl)c(Cl)c(Cl)c1O2` [HpCDD, 1,2,3,4,7,8,9-heptachlorodibenzo-p-dioxin], in data set [1], the TEF was 0.01. Further, in data set [2], the Mean percent change entry was “–46%”; the “Concentration 2004–2005, Mean ± SD” value worked out at 159.9 ± 161.8 pg/g lipid; the “Concentration 2010, Mean ± SD” value was determined as 87.1 ± 83.3 pg/g lipid. In data set [2] (present study), the “2004–2005 median concentration” value is recorded as 88.6 pg/g lipid. In data set [3] (setting [6]), the half-life is 2780 days. The half-life in data set [3] (setting [7]) is 2560 days. For the same molecule, in data set [3] (setting [8]), the half-life was 2450 days. Also, in data set [4], the “Half-life of elimination … (mean)” value is 4.3 years and the “Half-life of elimination … (median)” value was 3.7 years. In addition, the “Median concentration at first sampling time point” value in data set [4] (ref Flesch-Janys et al. (1996)) is recorded as 641 pg/g lipid.

Consider `Clc1cc2c(c(Cl)c1Cl)Oc1cc(Cl)c(Cl)c(Cl)c1O2` [Congener 16HxCDD, 1,2,3,6,7,8-hexachlorodibenzo-p-dioxin], for which the TEF in data set [1] is 0.1. Besides, in data set [2], the Mean percent change entry is listed as “–31%”; the “Concentration 2004–2005, Mean ± SD” value is given as 136.6 ± 99.9 pg/g lipid; the “Concentration 2010, Mean ± SD” value is reported as 94.3 ± 70.8 pg/g lipid. Also, in data set [3] (setting [6]), the half-life is 4020 days. For the same molecule, the half-life in data set [3] (setting [7]) was 3690 days. The half-life in data set [3] (setting [8]) is 3290 days. Further, in data set [4], the “Half-life of elimination … (mean)” value is on record as 11.6 years and the “Half-life of elimination … (median)” value is given as 13.1 years. In data set [5], the “NHANES (2003–2004) P50” value is recorded as 47.3 pg/g lipid and the “NHANES (2003–2004) P95” value is on record as 104 pg/g lipid.

Take `Clc1cc2c(cc1Cl)Oc1cc(Cl)c(Cl)cc1O2` [TCDD, 2,3,7,8-tetrachlorodibenzo-p-dioxin]: the TEF in data set [1] was 1. Further, in data set [2], the Mean percent change entry is given as “–39%”; the “Concentration 2004–2005, Mean ± SD” value was determined as 21.1 ± 30.0 pg/g lipid; the “Concentration 2010, Mean ± SD” value is 12.9 ± 19.6 pg/g lipid. Also, in data set [3] (setting [6]), the half-life is 2560 days. In data set [3] (setting [7]), the half-life is 2370 days. Further, the half-life in data set [3] (setting [8]) is 2370 days. For the same molecule, in data set [4], the “Half-life of elimination … (mean)” value is recorded as 8.7 years and the “Half-life of elimination … (median)” value is 7.2 years. Moreover, the “NHANES (2003–2004) P95” value in data set [5] is 7.9 pg/g lipid.

For `Clc1cc2c(cc1Cl)Oc1c(Cl)c(Cl)c(Cl)c(Cl)c1O2` [Congener 14HxCDD, 1,2,3,4,7,8-hexachlorodibenzo-p-dioxin], the TEF in data set [1] was 0.1. In data set [2], the Mean percent change entry is reported as “–34%”; the “Concentration 2004–2005, Mean ± SD” value is on record as 16.0 ± 11.9 pg/g lipid; the “Concentration 2010, Mean ± SD” value is given as 10.5 ± 7.9 pg/g lipid. Also, the half-life in data set [3] (setting [6]) was 3000 days. Moreover, the half-life in data set [3] (setting [7]) was 2960 days. The half-life in data set [3] (setting [8]) was 2560 days. In data set [4], the “Half-life of elimination … (mean)” value is listed as 13.9 years and the “Half-life of elimination … (median)” value was 8.4 years. Moreover, the “NHANES (2003–2004) P95” value in data set [5] was 15.1 pg/g lipid.

For the molecule `Clc1cc2c(c(Cl)c1Cl)Oc1c(cc(Cl)c(Cl)c1Cl)O2` [Congener 19HxCDD, 1,2,3,7,8,9-hexachlorodibenzo-p-dioxin], the TEF in data set [1] was 0.1. For the same molecule, in data set [2], the Mean percent change entry is on record as “–42%”; the “Concentration 2004–2005, Mean ± SD” value is on record as 19.4 ± 14.5 pg/g lipid; the “Concentration 2010, Mean ± SD” value is 11.3 ± 9.8 pg/g lipid. Further, the half-life in data set [3] (setting [6]) is 2480 days. Further, the half-life in data set [3] (setting [7]) is 2260 days. In addition, in data set [3] (setting [8]), the half-life was 2300 days. In data set [4], the “Half-life of elimination … (mean)” value is reported as 7.7 years and the “Half-life of elimination … (median)” value is 4.9 years. Moreover, in data set [5], the “NHANES (2003–2004) P95” value is 16.2 pg/g lipid.

As for `Clc1c(Cl)c(Cl)c2c(c1Cl)Oc1c(Cl)c(Cl)c(Cl)c(Cl)c1O2` [OCDD, octachlorodibenzo-p-dioxin], the TEF in data set [1] is recorded as 0.0003. Moreover, in data set [2], the Mean percent change entry is on record as “–41%”; the “Concentration 2004–2005, Mean ± SD” value is on record as 1919.6 ± 2121.0 pg/g lipid; the “Concentration 2010, Mean ± SD” value was 1124.7 ± 1232.0 pg/g lipid. Further, in data set [3] (setting [6]), the half-life was 3030 days. Besides, in data set [3] (setting [7]), the half-life is 2850 days. Also, the half-life in data set [3] (setting [8]) was 2670 days. For the same molecule, in data set [4], the “Half-life of elimination … (mean)” value is recorded as 8.7 years and the “Half-life of elimination … (median)” value is 6.7 years. Further, in data set [5], the “NHANES (2003–2004) P50” value was 370 pg/g lipid and the “NHANES (2003–2004) P95” value was 1,180 pg/g lipid.
